The test system of data set [1] is bone-marrow-derived murine DCs. Nature of the data set: In vitro MHC class-I antigen presentation: OVA-pulsed, Amphinex- and light-treated DCs co-cultured with OT-1 CD8 T cells, IFN-γ ELISA. The format is cell-based, mouse. As to the method: The DCs were washed and illuminated for the indicated time intervals before adding 100,000 purified CD8 T cells from OT-1 mice. […] After washing, the DCs were illuminated for 15 seconds.
The antigen OVA (Sigma Aldrich, Buchs, Switzerland) and the photosensitiser Amphinex (TPCS2a, PCI Biotech, Lysaker, Norway) were incubated with DCs using petri dishes. Typically, DCs were pulsed for 2 h with OVA and Amphinex. The DCs were then collected and washed by centrifugation before re-suspension in medium and further incubation on petri dishes for 2 h in Amphinex- and OVA-free medium; this allows removal of Amphinex from the outer plasma membrane. The DCs were then washed, counted and plated in round-bottom 96-well plates (typically 100,000 DCs per well), and the cells were exposed to light (435 nm) using LumiSource® (PCI Biotech) for different time intervals. Sex-matched CD8-purified OT-1 cells were then added to the DC plates at 100,000 cells per well and incubated at 37° C. overnight. The secretion of IFN-γ into supernatants was measured using ELISA according to the protocol from eBioscience (Ready-SET-Go!®, Bender MedSystems, Vienna, Austria).
After removing the photosensitiser and antigen by washing and incubation for another 2 hours, the DCs were transferred to 96-well plates at 100,000 cells per well and treated with light at different time-doses before admixing an equal number of purified OT-1 CD8 T cells. […] Of note, antigen presentation and IFN-γ secretion of soluble OVA was improved by Amphinex alone, but not by light alone (FIG. 1a). To further test the sensitivity of DCs to PCI treatment, equivalent assays were performed using a single light dose of 15 seconds, but a wide range of Amphinex doses (0.0005-0.5 μg/ml), namely 0.003, 0.006, 0.0125, 0.025, 0.05, 0.1 and 0.2 μg/ml.

The test system of data set [2] is Bone-marrow derived murine DCs. Nature of the data set: PCI-induced apoptosis and cell death of DCs, Annexin-V / propidium iodide flow cytometry. The format is cell-based. The following applies: 0.2 μg/ml Amphinex, 435 nm light 1 to 10 minutes, 2 hours rest at 37° C. As to the method:
The DCs were then washed and seeded into culture plates and treated with light for various time periods (minutes) as indicated. The cells were cultured for another 2 hours (or overnight) and the viability was analysed by flow cytometry after staining with Annexin-V and propidium iodide (PI). The results are illustrated as representative dotbiots (a) or summarised in histograms (b).
The DC viability was tested 2 hours after the PCI treatment by staining the cells with propidium iodide and Annexin-V to identify necrotic and apoptotic cells, respectively, which were analysed by flow cytometry (FACSCanto from BD Biosciences, San Jose, USA). The analysis was performed using the FlowJo 8.5.2 software from Tree Star, Inc. (Ashland, Oreg.). […] Cytokines were analysed by ELISA from supernatants of 24 hours cultures, and flow cytometry was done on cells after 48 hours incubation. […]
Therefore in a series of experiments, we analysed cell death and apoptosis by flow cytometry after staining of cells with propidium iodide and fluorescence-labelled anti-Annexin-V. A concentration of 0.2 μg/ml Amphinex induced light-dose dependent apoptosis and cell death upon illumination with 435 nm light for 1 to 10 minutes (FIG. 2a); the DCs were rested at 37° C. for 2 hours after light treatment before staining and acquisition. […]

The test system of data set [3] is DCs. Nature of the data set: Activation of DCs: cytokine secretion (TNF-α, IL-6, IL-12, IL-1β) by ELISA. The format is cell-based, mouse. As to the method:
(§1) The cells were then washed and cultured in Amphinex- and OVA-free medium for another 2 hours before being treated with Lumisource® light for 3 minutes. The DCs were then cultured overnight before collection of supernatants for analysis of the cytokines TNF-α (a), IL-6 (b), IL-12 (c) and IL-1β (d). To measure the expression of CD80 by flow cytometry, DCs were cultured with 0, 0.1 or 1 μg/ml Amphinex and 0 or 10 μg/ml OVA as indicated (e). The histograms are representative of triplicates and show cells that were gated on viable and CD11c-positive cells. Arrows indicate samples that were treated with light for 3 min.
(§2) The DC viability was tested 2 hours after the PCI treatment by staining the cells with propidium iodide and Annexin-V to identify necrotic and apoptotic cells, respectively, which were analysed by flow cytometry (FACSCanto from BD Biosciences, San Jose, USA). The analysis was performed using the FlowJo 8.5.2 software from Tree Star, Inc. (Ashland, Oreg.). Activation of DCs was further tested by measuring the secretion of TNF-α, IL-6, IL-12 and IL-1β by ELISA (eBioscience) and the expression of MHC I, MHC II, CD40, CD80, CD83 and CD86 by flow cytometry. Briefly, the DCs were incubated for 2 hours with Amphinex or lipopolysaccharide E. coli clone 026:B6 (Sigma Aldrich), washed, incubated for another 2 hours in fresh medium, illuminated for 3 min with Lumisource® light, and incubated. Cytokines were analysed by ELISA from supernatants of 24 hours cultures, and flow cytometry was done on cells after 48 hours incubation. All FACS antibodies were purchased from BD Pharmingen (Basel, Switzerland) or from eBioscience.
We further tested the activation of DCs and their innate immune reactions after PCI treatment. Adjuvants and especially pathogen-associated molecular patterns (PAMPs) typically activate DCs and other antigen presenting cells via stimulation of pathogen recognition receptors such as Toll-like receptors, NOD-like receptors, C-type lectin and mannose receptors. Such activation then is typically characterised by secretion cytokines important for stimulation and regulation of further innate as well as adoptive immune responses. […] Although weak, the adjuvant effect with regard to IL-6 seemed light dependent, as IL-6 secretion was not increased by Amphinex or light alone, but only by their combination. However, the effect was much weaker than after stimulation of DCs with 1 μg/ml lipopolysaccharide (LPS). While stimulation of TNF-α and IL-6 secretion characterises the general adjuvant potential of a compound or a treatment, stimulation of IL-12 and IL-1β illustrates the potential to trigger Th1 T-cell responses and inflammasome, respectively.
A general note: ELISA stands for enzyme-linked immunosorbent assay.

For data set [4], the system named is DCs. Nature of the data set: Activation of DCs: surface marker expression by flow cytometry. The format is cell-based, mouse. As to the method: as §1, §2
DC constitutively expressed the co-stimulatory molecules CD80 and CD86 (FIG. 3e; CD80 only shown). […] The expression of CD40, MHC I and MHC II was not affected by Amphinex treatment (not shown).
Background: In flow cytometry, cells or beads pass a laser one at a time.

Setting [5] is: PCI treatment: 1 μg/ml Amphinex plus 3 min light.
The mark [6] stands for this setting: PCI treatment: 1 μg/ml Amphinex plus 3 min light, measured after 22 hours incubation.

On to “Disulfonated tetraphenyl chlorin [Amphinex]”, for which the “immune responses (IFN-γ secretion), 0.05 μg/ml compared with 0.2 μg/ml Amphinex” value in data set [1] (0.05 vs 0.2 μg/ml Amphinex) is “stronger immune responses”. Moreover, the “antigen presentation (IFN-γ secretion by OT-1 CD8 T cells)” value in data set [1] (Amphinex 0.025 and 0.05 μg/ml, light 15 seconds) is listed as “facilitated antigen presentation”. Also, in data set [1] (Amphinex alone, without light), the “antigen presentation and IFN-γ secretion of soluble OVA” value was “improved”. Moreover, in data set [1] (Amphinex combined with high light doses), the antigen presentation entry is reported as “clear detrimental effect”. Further, in data set [1] (Amphinex doses higher than 0.05 μg/ml, light 15 seconds), the “IFN-γ secretion by OT-1 CD8 T cells” value is “declined”. Further, the “MHC-1 antigen presentation as measured by IFN-γ secretion” value in data set [1] (DCs pulsed 2 h with OVA with 0.05 or 0.2 μg/ml Amphinex vs OVA only, IFN-γ after 24 hours) is “significantly increased”. For the same substance, in data set [2], the “amount of cells dying” value is on record as 50-60% and the apoptotic cells result is “approx. 20%”. The IL-6 secretion entry in data set [3] (Amphinex alone, without light) is given as “not increased”. In data set [3] (PCI treatment (Amphinex plus light) vs 1 μg/ml LPS), the “cytokine-stimulating (adjuvant) effect compared with 1 μg/ml lipopolysaccharide (LPS)” value is listed as “much weaker”. In data set [3] (setting [5]), the IL-1β secretion entry is “neither were notably stimulated” and the IL-12 secretion entry is “neither were notably stimulated”. Also, in data set [3] (setting [6]), the IL-6 secretion result is “weak stimulation” and the TNF-α secretion entry is on record as “weak stimulation”. Further, in data set [4] (Amphinex treatment), the CD40 expression entry was “not affected”, the “MHC I expression” value is “not affected” and the “MHC II expression” value is “not affected”. Also, in data set [4] (Amphinex-treated DCs also treated with light 3 min, with or without OVA, gated on viable CD11c-positive cells), the CD80 expression result was “down-regulation”.
